From patent US6841519B1, “Isoxazoline derivatives and herbicides containing the same as the active ingredient” (Kumiai Chemical Industry Co., Ltd., priority 1999, dated 2005)

Legend:
Assay type in all cases: in vivo
[1] = system: Echinochloa oryzicola Vasing. (Eo); test: Test for herbicidal effect by paddy field soil treatment (Test Example 1); details: application amount (active ingredient) 100 g/10 a, examined at the 21st day from the treatment, index per Table 40
How it was run: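 Eo seeds sown in puddled paddy soil under 3 cm water; next day a water-diluted wettable powder was dropped onto the water surface at 100 g active ingredient per 10 ares. Herbicidal effect scored on a standard scale 21 days after treatment, greenhouse-grown.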

[2] = system: Echinochloa crus-galli (L.) Beauv. var. crusgalli (Ec); test: Test for herbicidal effect by upland foliage treatment (Test Example 3); details: 100 g/10 a active ingredient, examined at 14th day
How it was run: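 Potted upland-soil Ec seedlings grown 2 weeks in greenhouse, then foliage-sprayed with water-diluted wettable powder at 100 L per 10 ares, giving 100 g active ingredient per 10 ares. Herbicidal effect scored on a graded standard 14 days after treatment.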

[3] = system: Setaria viridis (L.) Beauv. (Se); test: Test for herbicidal effect by upland field soil treatment (Test Example 2), Se
How it was run: (§1)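 Echinochloa crus-galli and Setaria viridis were sown in upland field soil and covered, then the soil surface was sprayed with water-diluted wettable powder at 100 g active ingredient per 10 ares (100 liters per 10 ares). Plants were grown in a greenhouse and scored on a standard scale on day 21.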

[4] = system: Chenopodium album L. (Ch); test: Test for herbicidal effect to broadleaf weeds by upland field soil treatment (Test Example 6), Ch; details: 25 g/10 a active ingredient, 30th day
Protocol: (§2) Test for herbicidal effect to broadleaf weeds by upland field soil treatment
(§3) An upland field soil was filled in a plastic pot of 80 cm^2. Seeds of Polygonum lapathifolium L. subsp. nodosum (Pers.) Kitam. (Po) and Chenopodium album L. (Ch) were sowed, followed by covering with the same soil. Wettable powders produced in accordance with the Formulation 1 were diluted with water and sprayed uniformly on the soil surface using a small sprayer, […] Then, breeding was made in a greenhouse. At the 30th day from the treatment, the herbicidal effect of each wettable powder was examined in accordance with the standard shown in Table 40.

[5] = system: Echinochloa crus-galli (L.) Beauv. var. crusgall (Ec); test: Test for herbicidal effect by upland field soil treatment (Test Example 2), Ec
How it was run: as §1

[6] = system: Polygonum lapathifolium L. subsp. nodosum (Pers.) Kitam. (Po); test: Test for herbicidal effect to broadleaf weeds by upland field soil treatment (Test Example 6), Po; details: 25 g/10 a active ingredient, 30th day
Protocol: as §2, §3

rice (Or) = test: Test for crop selectivity by paddy field soil treatment (Test Example 4), phytotoxicity to rice; details: transplanted two-leaf stage rice, 100 g/10 a active ingredient, 21st day
How it was run: (§4)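 Puddled paddy soil sown with Eo seeds, two-leaf rice transplanted at 2 cm depth, flooded 3 cm. Next day, wettable powder diluted in water was dropped on the water surface at 100 g a.i. per 10 ares. Herbicidal effect and rice phytotoxicity scored visually 21 days after treatment, greenhouse.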

[7] = system: Echinochloa oryzicola Vasing. (Eo); test: Test for crop selectivity by paddy field soil treatment (Test Example 4), herbicidal effect on Eo; details: 100 g/10 a active ingredient, 21st day
How it was run: as §4

[8] = 100 g/10 a active ingredient, examined at 21st day
[9] = application amount (active ingredient) 100 g/10 a, examined at the 21st day from the treatment, index per Table 40

In the case of CC1CC(S(=O)(=O)Cc2c(F)cccc2F)=NO1 (centres unmarked) [Compound 1-532], the “Herbicidal effect to Eo” value [1] is reported as 5 (A herbicidal effect or phytotoxicity of 90% or more), the “Herbicidal effect to Ec” value [2] is reported as 4 (A herbicidal effect or phytotoxicity of 70% to less than 90%) and the “Herbicidal effect to Se” value [3, 8] is reported as 4 (A herbicidal effect or phytotoxicity of 70% to less than 90%). The “Herbicidal effect to Ch” value [4] was 5 (A herbicidal effect or phytotoxicity of 90% or more), the “Herbicidal effect to Ec” value [5, 8] was 5 (A herbicidal effect or phytotoxicity of 90% or more) and the “Herbicidal effect to Po” value [6] was 5 (A herbicidal effect or phytotoxicity of 90% or more).

In the case of Cc1cc(C)cc(CS(=O)(=O)C2=NOC(C)(C)C2)c1 [Compound 1-523], the “Herbicidal effect to Eo” value [1] is reported as 5 (A herbicidal effect or phytotoxicity of 90% or more), the “Herbicidal effect to Ec” value [2] is reported as 5 (A herbicidal effect or phytotoxicity of 90% or more) and the “Herbicidal effect to Se” value [3, 8] is reported as 5 (A herbicidal effect or phytotoxicity of 90% or more). The “Herbicidal effect to Ch” value [4] was 5 (A herbicidal effect or phytotoxicity of 90% or more), the “Herbicidal effect to Ec” value [5, 8] was 5 (A herbicidal effect or phytotoxicity of 90% or more) and the “Herbicidal effect to Po” value [6] was 5 (A herbicidal effect or phytotoxicity of 90% or more).

For CC1(C)CC(S(=O)(=O)Cc2c(F)cccc2OC(F)F)=NO1 [Compound 1-573], the “Herbicidal effect to Eo” value [1] was 5 (A herbicidal effect or phytotoxicity of 90% or more), the “Herbicidal effect to Ec” value [2] was 5 (A herbicidal effect or phytotoxicity of 90% or more) and the “Herbicidal effect to Se” value [3, 8] was 5 (A herbicidal effect or phytotoxicity of 90% or more). The “Herbicidal effect to Ch” value [4] was 5 (A herbicidal effect or phytotoxicity of 90% or more), the “Herbicidal effect to Ec” value [5, 8] was 5 (A herbicidal effect or phytotoxicity of 90% or more) and the “Herbicidal effect to Po” value [6] was 5 (A herbicidal effect or phytotoxicity of 90% or more).

With CC1(C)CC(S(=O)(=O)Cc2c(F)ccc(F)c2F)=NO1 [Compound 1-501] the “Herbicidal effect to Eo” value [1] was 5 (A herbicidal effect or phytotoxicity of 90% or more), the “Herbicidal effect to Ec” value [2] was 5 (A herbicidal effect or phytotoxicity of 90% or more) and the “Herbicidal effect to Se” value [3, 8] was 5 (A herbicidal effect or phytotoxicity of 90% or more). For the same molecule, the “Herbicidal effect to Ch” value [4] was 5 (A herbicidal effect or phytotoxicity of 90% or more), the “Herbicidal effect to Ec” value [5, 8] was 5 (A herbicidal effect or phytotoxicity of 90% or more) and the “Herbicidal effect to Po” value [6] was 5 (A herbicidal effect or phytotoxicity of 90% or more).

With COC(=O)c1cccc(F)c1CS(=O)(=O)C1=NOC(C)(C)C1 [Compound 1-555] the “Herbicidal effect to Eo” value [1] was 5 (A herbicidal effect or phytotoxicity of 90% or more), the “Herbicidal effect to Ec” value [2] was 4 (A herbicidal effect or phytotoxicity of 70% to less than 90%) and the “Herbicidal effect to Se” value [3, 8] was 5 (A herbicidal effect or phytotoxicity of 90% or more). The “Herbicidal effect to Ch” value [4] was 4 (A herbicidal effect or phytotoxicity of 70% to less than 90%), the “Herbicidal effect to Ec” value [5, 8] was 5 (A herbicidal effect or phytotoxicity of 90% or more) and the “Herbicidal effect to Po” value [6] was 5 (A herbicidal effect or phytotoxicity of 90% or more).

For CCOc1cccc(F)c1CS(=O)(=O)C1=NOC(C)(C)C1 [Compound 1-526], the “Herbicidal effect to Eo” value [1] was 5 (A herbicidal effect or phytotoxicity of 90% or more), the “Herbicidal effect to Ec” value [2] was 5 (A herbicidal effect or phytotoxicity of 90% or more) and the “Herbicidal effect to Se” value [3, 8] was 5 (A herbicidal effect or phytotoxicity of 90% or more). For the same molecule, the “Herbicidal effect to Ch” value [4] was 5 (A herbicidal effect or phytotoxicity of 90% or more), the “Herbicidal effect to Ec” value [5, 8] was 5 (A herbicidal effect or phytotoxicity of 90% or more) and the “Herbicidal effect to Po” value [6] was 5 (A herbicidal effect or phytotoxicity of 90% or more).

For CC1(C)CC(S(=O)(=O)Cc2c(F)cc(F)cc2F)=NO1 [Compound 1-500], the “Herbicidal effect to Eo” value [1] was 5 (A herbicidal effect or phytotoxicity of 90% or more), the “Herbicidal effect to Ec” value [2] was 5 (A herbicidal effect or phytotoxicity of 90% or more) and the “Herbicidal effect to Se” value [3, 8] was 5 (A herbicidal effect or phytotoxicity of 90% or more). For the same molecule, the “Herbicidal effect to Ch” value [4] was 4 (A herbicidal effect or phytotoxicity of 70% to less than 90%), the “Herbicidal effect to Ec” value [5, 8] was 5 (A herbicidal effect or phytotoxicity of 90% or more) and the “Herbicidal effect to Po” value [6] was 5 (A herbicidal effect or phytotoxicity of 90% or more).

With CC1(C)CC(S(=O)(=O)Cc2cc(F)ccc2F)=NO1 [Compound 1-498] the “Herbicidal effect to Eo” value [1] was 5 (A herbicidal effect or phytotoxicity of 90% or more), the “Herbicidal effect to Ec” value [2] was 5 (A herbicidal effect or phytotoxicity of 90% or more) and the “Herbicidal effect to Se” value [3, 8] was 5 (A herbicidal effect or phytotoxicity of 90% or more). For the same molecule, the “Herbicidal effect to Ch” value [4] was 5 (A herbicidal effect or phytotoxicity of 90% or more), the “Herbicidal effect to Ec” value [5, 8] was 5 (A herbicidal effect or phytotoxicity of 90% or more) and the “Herbicidal effect to Po” value [6] was 5 (A herbicidal effect or phytotoxicity of 90% or more).

COc1cccc(F)c1CS(=O)(=O)C1=NOC(C)(C)C1 [Compound 1-534] was tested, and the “Herbicidal effect to Eo” value [1] was 5 (A herbicidal effect or phytotoxicity of 90% or more), the “Herbicidal effect to Ec” value [2] was 5 (A herbicidal effect or phytotoxicity of 90% or more) and the “Herbicidal effect to Se” value [3, 8] was 5 (A herbicidal effect or phytotoxicity of 90% or more). For the same molecule, the “Herbicidal effect to Ch” value [4] was 5 (A herbicidal effect or phytotoxicity of 90% or more), the “Herbicidal effect to Ec” value [5, 8] was 5 (A herbicidal effect or phytotoxicity of 90% or more) and the “Herbicidal effect to Po” value [6] was 5 (A herbicidal effect or phytotoxicity of 90% or more).

With CC1(C)CC(S(=O)(=O)Cc2ccccc2Cl)=NO1 [Compound 1-2] the “Herbicidal effect to Eo” value [1] was 5 (A herbicidal effect or phytotoxicity of 90% or more), the “Herbicidal effect to Ec” value [2] was 4 (A herbicidal effect or phytotoxicity of 70% to less than 90%) and the “Herbicidal effect to Se” value [3, 9] was 5 (A herbicidal effect or phytotoxicity of 90% or more). For the same molecule, the “Herbicidal effect to Ch” value [4] was 4 (A herbicidal effect or phytotoxicity of 70% to less than 90%) and the “Herbicidal effect to Ec” value [5, 9] was 5 (A herbicidal effect or phytotoxicity of 90% or more).

With COC(=O)c1cccc(CS(=O)(=O)C2=NOC(C)(C)C2)c1[N+](=O)[O-] [Compound 1-503] the “Herbicidal effect to Eo” value [1] was 5 (A herbicidal effect or phytotoxicity of 90% or more), the “Phytotoxicity to Or” value (rice (Or)) was 0 (A herbicidal effect or phytotoxicity of 0% to less than 10%) and the “Herbicidal effect to Ec” value [2] was 4 (A herbicidal effect or phytotoxicity of 70% to less than 90%). For the same molecule, the “Herbicidal effect to Se” value [3, 8] was 5 (A herbicidal effect or phytotoxicity of 90% or more), the “Herbicidal effect to Eo” value [7] was 5 (A herbicidal effect or phytotoxicity of 90% or more) and the “Herbicidal effect to Ec” value [5, 8] was 5 (A herbicidal effect or phytotoxicity of 90% or more).

With CCC1(C)CC(S(=O)(=O)Cc2ccc(C)cc2)=NO1 (centres unmarked) [Compound 1-203] the “Herbicidal effect to Eo” value [1] was 5 (A herbicidal effect or phytotoxicity of 90% or more), the “Phytotoxicity to Or” value (rice (Or)) was 1 (A herbicidal effect or phytotoxicity of 10% to less than 30%) and the “Herbicidal effect to Ec” value [2] was 4 (A herbicidal effect or phytotoxicity of 70% to less than 90%). The “Herbicidal effect to Se” value [3, 9] was 4 (A herbicidal effect or phytotoxicity of 70% to less than 90%), the “Herbicidal effect to Eo” value [7] was 5 (A herbicidal effect or phytotoxicity of 90% or more) and the “Herbicidal effect to Ec” value [5, 9] was 5 (A herbicidal effect or phytotoxicity of 90% or more).

With CCC1(C)CC(S(=O)(=O)Cc2cccc(OC)c2)=NO1 (centres unmarked) [Compound 1-229] the “Herbicidal effect to Eo” value [1] was 5 (A herbicidal effect or phytotoxicity of 90% or more), the “Phytotoxicity to Or” value (rice (Or)) was 1 (A herbicidal effect or phytotoxicity of 10% to less than 30%) and the “Herbicidal effect to Ec” value [2] was 4 (A herbicidal effect or phytotoxicity of 70% to less than 90%). For the same molecule, the “Herbicidal effect to Se” value [3, 9] was 5 (A herbicidal effect or phytotoxicity of 90% or more), the “Herbicidal effect to Eo” value [7] was 5 (A herbicidal effect or phytotoxicity of 90% or more) and the “Herbicidal effect to Ec” value [5, 9] was 5 (A herbicidal effect or phytotoxicity of 90% or more).
